Measurements as given in patent publication US11753408B2, “Compounds and method for blocking transmission of malarial parasite” (The United States of America, as represented by the …, priority 2016, dated 2023).
pEC50: −log10 of the molar value. Where two headings read alike, the source gives them in different places.

Key:
[1] = test system: Stage III-V gametocytes (blood stage P. falciparum parasites); assay: In vitro drug activity on gametocytes (AlamarBlue viability assay); format: cell-based, Plasmodium falciparum; settings: read-out: Gametocyte EC50
Method in brief: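 Viability was measured by AlamarBlue fluorescence (Ex 525/Em 598 nm) after 24 h dye incubation following 72 h compound exposure at 37° C, 5% CO2. Gametocytes, stage III–V from strains 3D7, HB3 and Dd2, were NAG/Percoll-enriched and plated at 20,000 cells/well.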

[2] = test system: Asexual parasites of P. falciparum strain 3D7; assay: In vitro drug activity on asexual parasites (SYBR Green assay); format: cell-based, Plasmodium falciparum
Method in brief: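 SYBR Green I fluorescence (ex 490, em 520 nm) was read after freeze-thaw lysis and 30 min staining at room temperature. Before that, drug-treated cultures (0.5% parasitemia, 2% hematocrit, DMSO ≤0.5%) were incubated 72 h, in duplicate.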

mTOR = mTOR (Homo sapiens, UniProt P42345); assay: mTOR activity (no method described); format: biochemical
[3] = Microsomal stability (rat); format: in vitro ADME; settings: rat microsomes
Solubility at pH 7.4 = format: physicochemical
PAMPA permeability = format: in vitro ADME
[4] = P. falciparum stage III-V gametocytes, 72 h incubation, AlamarBlue
[5] = P. falciparum 3D7 asexual parasites, 72 h, SYBR Green

SMILES | pEC50 [2] | mTOR (mTOR) [nM] | Microsomal Stability (rat) T1/2 [3] [min] | Sol @ pH 7.4 (Solubility at pH 7.4) [ug/mL] | PAMPA Permeability (PAMPA permeability) [×10⁻⁶ cm/s] | pEC50 [2, 5] | Sol @ pH 7.4 (ug/mL) (Solubility at pH 7.4) | PAMPA Permeability (×10^6 cm/s) (PAMPA permeability) | pEC50 [1] | pEC50 [1, 4]
O=C(c1ccc(-n2c(=O)ccc3cnc4ccc(-c5ccc(Cl)cc5)cc4c32)cc1)N(CCO)CCO [Compound 105] | 7.32 | 779.9 | 5.9 | 14.8 | 285 |  |  |  | 7.03 | 
Cn1c(=O)n(-c2ccc(N3CCN(CCO)CC3)c(C#N)c2)c2c3cc(-c4ccc(Cl)cc4)ccc3ncc21 [Compound 417] |  | 319 |  | <1 | < 1 |  |  |  | 7.44 | 
O=C(NC1CCCCCC1)c1ccc(-n2c(=O)ccc3cnc4ccc(-c5ccc(Cl)cc5)cc4c32)cc1 [Compound 157] | 5.47 | 50000 | 6.8 | <1.0 | < 1 |  |  |  | 5.13 | 
CN(C)Cc1ccc(-c2ccc3ncc4ccc(=O)n(-c5ccc(C(=O)N6CCN(CCO)CC6)cc5)c4c3c2)cc1 [Compound 162] | 6.43 | 32080 | >30.0 | >83.0 | < 1 |  |  |  | 6.05 | 
CN(C)C(=O)c1ccc(-n2c(=O)ccc3cnc4ccc(-c5ccc(Cl)cc5)cc4c32)cc1 [Compound 100] | 7.83 | 1531 | 3.8 | <1.0 | 315 |  |  |  | 7.34 | 
CN1CC2CN(C(=O)c3ccc(-n4c(=O)ccc5cnc6ccc(-c7ccc(Cl)cc7)cc6c54)cc3)CC2C1 (stereo not drawn) [Compound 141] | 7.32 | 8043 | 4.2 | 66.5 | 1500 |  |  |  | 6.58 | 
COc1cc(C(=O)NC2CC2)ccc1-n1c(=O)ccc2cnc3ccc(-c4ccc(Cl)cc4)cc3c21 [Compound 191] |  | 4337 | 26.7 | 2.4 | 606 |  |  |  | 6.76 | 
COc1cc(C(=O)N2CCOCC2)ccc1-n1c(=O)ccc2cnc3ccc(-c4ccc(CN(C)C)cc4)cc3c21 [Compound 193] |  | 8290 | >30 | >81 | 162 |  |  |  | 6.09 | 
Cc1cc(C(=O)NC2CC2)ccc1-n1c(=O)ccc2cnc3ccc(-c4ccc(Cl)cc4)cc3c21 [Compound 88] | 7.25 | 1841 |  | 0.51 | 117 |  |  |  | 6.85 | 
CC1CC1NC(=O)c1ccc(-n2c(=O)ccc3cnc4ccc(-c5ccc(N)nc5)cc4c32)cc1 (stereo not drawn) [Compound 338] |  | 150.5 |  | 0.32 | 141 |  |  |  | 7.18 | 
CS(=O)(=O)c1ccc(-n2c(=O)ccc3cnc4ccc(-c5cccc(CN)c5)cc4c32)cc1 [Compound 64] |  |  | >30 |  |  | 6.31 | 1.4 | <12.3 ×10^6 cm/s |  | 5.98
CS(=O)(=O)c1ccc(-n2c(=O)ccc3cnc4ccc(-c5ccc(C=O)cc5)cc4c32)cc1 [Compound 65] |  |  | 2.9 |  |  | 7.37 | <1 | 5.4 ×10^6 cm/s |  | 6.34
CN1Cc2cc(-n3c(=O)ccc4cnc5ccc(-c6ccc(F)cc6)cc5c43)ccc2C1=O [Compound 360] |  |  | 19.2 |  |  | 6.77 | 0.73 | 635.05 ×10^6 cm/s |  | 6.13
NS(=O)(=O)c1ccc(-n2c(=O)ccc3cnc4ccc(-c5ccc(Cl)cc5)cc4c32)cc1 [Compound 40] |  |  | >30.0 |  |  | 7.84 | <1.0 | <1.0 ×10^6 cm/s |  | 7.29
NC1(c2ccc(-c3ccc4ncc5ccc(=O)n(-c6ccc7c(c6)CNC7=O)c5c4c3)cc2)CC1 [Compound 373] |  |  | >30 |  |  | 6.46 | 3.3 | <6.3 ×10^6 cm/s |  | 7.34
Cc1ccc(C#N)cc1-n1c(=O)ccc2cnc3ccc(-c4ccc(Cl)cc4)cc3c21 [Compound 3] |  |  | 12.1 |  |  | 6.95 | <0.1 | 621.2 ×10^6 cm/s |  | 6.58
COc1cc(C(=O)NC2CC2)ccc1-n1c(=O)ccc2cnc3ccc(-c4ccc(F)cc4)cc3c21 [Compound 188] |  | 7201 | 21.5 | <1 | 1250 |  |  |  | 6.22 | 
Cc1cc(-c2ccc3ncc4ccc(=O)n(-c5ccc(S(C)(=O)=O)cc5)c4c3c2)ccc1Cl [Compound 48] |  |  | >30.0 |  |  | 6.70 | <1.0 | <1.0 ×10^6 cm/s |  | 6.25
CS(=O)(=O)c1ccc(-n2c(=O)ccc3cnc4ccc(-c5ccc(CN)cc5)cc4c32)cc1 [Compound 47] |  |  | >30.0 |  |  | 7.18 | 2.1 | <2.9 ×10^6 cm/s |  | 6.42
Cc1c(C#N)cccc1-n1c(=O)ccc2cnc3ccc(-c4ccc(N)nc4)cc3c21 [Compound 24] |  |  | 19 |  |  | 8.23 | 5.7 | 547.9 ×10^6 cm/s |  | 7.63

Continued, in another order:

pEC50 [2] | mTOR (mTOR) [nM] | Microsomal Stability (rat) T1/2 [3] [min] | Sol @ pH 7.4 (Solubility at pH 7.4) [ug/mL] | PAMPA Permeability (PAMPA permeability) [×10⁻⁶ cm/s] | pEC50 [2, 5] | Sol @ pH 7.4 (ug/mL) (Solubility at pH 7.4) | PAMPA Permeability (×10^6 cm/s) (PAMPA permeability) | SMILES | pEC50 [1] | pEC50 [1, 4]
 | 100000 |  | >77.00 | 366 |  |  |  | CN(C)Cc1cccc(-c2ccc3ncc4ccc(=O)n(-c5ccc(C(=O)N6CCOCC6)cc5)c4c3c2)c1 [Compound 173] | 5.60 | 
7.62 | 372.4 | 1.7 | <1.0 | 1240 |  |  |  | O=C(c1ccc(-n2c(=O)ccc3cnc4ccc(-c5ccc(Cl)cc5)cc4c32)cc1C(F)(F)F)N1CCOCC1 [Compound 126] | 6.93 | 
6.84 | 1357 | 19.7 |  | 20.4 |  |  |  | N#Cc1cccc(-c2ccc3ncc4ccc(=O)n(-c5ccc(C(=O)N6CCOCC6)cc5)c4c3c2)c1 [Compound 124] | 6.46 | 
6.45 | 50000 | 15.1 | 3.4 | 35.5 |  |  |  | O=C(c1ccc(-n2c(=O)ccc3cnc4ccc(-c5ccc(CN6CCOCC6)cc5)cc4c32)cc1)N1CCOCC1 [Compound 185] | 5.94 | 
6.98 | 338.7 | 12.2 | 7.3 | 9.1 |  |  |  | O=C1Cc2cc(-c3ccc4ncc5ccc(=O)n(-c6ccc(C(=O)N7CCOCC7)cc6)c5c4c3)ccc2N1 [Compound 127] | 6.77 | 
6.58 | 1303 | 5.4 |  | 822 |  |  |  | O=C(c1ccc(-n2c(=O)ccc3cnc4ccc(-c5cccc(Cl)c5)cc4c32)cc1)N1CCOCC1 [Compound 122] | 6.43 | 
 | 6514 | >30 | >78 | 212 |  |  |  | O=C(c1ccc(-n2c(=O)ccc3cnc4ccc(-c5ccc(CN6CCC6)cc5)cc4c32)cc1)N1CCOCC1 [Compound 189] | 6.45 | 
 | 781.4 | 8.8 | <1 | 148 |  |  |  | CCc1ccc(-c2ccc3ncc4ccc(=O)n(-c5ccc(C(=O)N6CCOCC6)cc5)c4c3c2)cc1 [Compound 195] | 6.56 | 
 | 100000 | 6.9 | <1 | 1080 |  |  |  | COc1cc(C(=O)N2CCOCC2)ccc1-n1c(=O)ccc2cnc3ccc(-c4ccc(F)cc4)cc3c21 [Compound 194] | 6.15 | 
6.52 | 631.5 |  | 2.8 | 204 |  |  |  | O=Cc1ccc(-c2ccc3ncc4ccc(=O)n(-c5ccc(C(=O)N6CCOCC6)cc5)c4c3c2)cc1 [Compound 169] | 6.20 | 
 | 2384 | >30 | >77 | 3.5 |  |  |  | CC(C)(N)c1cccc(-c2ccc3ncc4ccc(=O)n(-c5ccc(C(=O)N6CCOCC6)cc5)c4c3c2)c1 [Compound 197] | 4.19 | 
6.66 | 522.6 | 5.4 |  | 243 |  |  |  | Cc1cccc(-c2ccc3ncc4ccc(=O)n(-c5ccc(C(=O)N6CCOCC6)cc5)c4c3c2)c1 [Compound 121] | 6.35 | 
